According to patent EP2488183B1, “Composition for inhibiting TGF-beta comprising imidazopurine derivatives” (Korea Institute of Radiological & Medical Sciences, priority 2009, dated 2011):

How the values were obtained:
HSC-T6 cells [1] = assay: Serum-induced proliferation of hepatic stellate cells, CCK-8 assay; format: cell-based, human; details: added 2 h before serum, 48 h
Protocol: HSC-T6 cells, a stable cell line made by professor S.L. Friedman at Mount Sinai in U.S. A., were obtained and used as hepatic stellate cells (HSC), which are employed mainly as a subject for liver fibrosis. HSC-T6 cells were c under 5% CO2 at a temperature of 37°C in a DMEM supplemented with 10% FBS, 100 units/ml of penicillin, and 100 µg/ml of streptomycin. In order to identify whether compounds I and II directly affect proliferation of hepatic stellate cells, the incubation was performed in a serum-free medium for 24 hours and then the culture was treated with 1, 10, and 20 µM of the compounds I and II, 2 hours prior to addition of serum thereto. Subsequently, under the condition described above, the incubation was further performed for 48 hours and then a CCK-8 assay kit was used to measure cell viability. Absorbance was measured at a wavelength of 450 nm by using a spectrophotometer (Labsystems, U.S.A.) to count the number of cells.

H1299 = assay: Apoptosis of lung cancer cells alone or with doxorubicin, CCK-8 viability assay; format: cell-based; details: 48 h; for apoptosis effect together with doxorubicin: H1299, compound added 2 h before doxorubicin 0.05 µM; for apoptosis: H1299, compound alone at 5 µM or more, FIGS. 9a, 9c
Protocol: (§1) TGF-βis known to have contrasting effects related to a tumor. That is, at an initial stage, TGF-β suppresses tumor growth, but at a latter stage, promotes metastasis or infiltration of a tumor. Thus, apoptosis of tumor cell lines caused by compound I and II, and apoptosis of tumor cell lines caused by compound I or II in combination with doxorubicin, an anti-cancer agent, were measured. […] The tumor cells were treated with compound I or II at the concentrations shown in FIG. 9, and 2 hours later, doxorubicin was added thereto. Then, the cells were incubated for 48 hours under the conditions described above and then, quantified using a CCK-8 viability assay kit (Dojindo, Japan).

H1299 cells = assay: Apoptosis alone or with radiation, Annexin-PI staining and FACS assay; format: cell-based; details: 48 h; for effect on apoptosis together with radiation compared to compound or radiation alone: H1299, 6 Gy
Protocol: H1299, a cell strain of lung cancer, which is generally treated by radiation therapy, was treated with radiation in combination with compound I or II, and apoptosis thereof was measured. Compound I or II was added to H1299 cells inoculated to a 6 cm cell incubation plate as described in Example 3, and two hours later, 6 Gy of radioactive rays were irradiated thereto, and 48 hours later, apoptosis was measured by Annexin-PI staining and FACS assay. […] Table 2 [Table 2]

HSC-T6 cells [2] = assay: Western blotting of fibrosis markers in TGF-β-treated hepatic stellate cells; format: cell-based, human; details: HSC-T6, 0, 1, 5 and 10 µM added 2 h before TGF-β (5 ng/ml), 24 h; FIGS. 6a, 6b
Protocol: In addition, levels of α-smooth muscle actin (α-SMA) and extracellular matrix material fibronectin, which are typically used as a fibrosis molecular marker to identify fibrosis of hepatic stellate cells, were measured by western blotting. Two hours before the treatment with TGF-β(5 ng/ml), each of compounds I and II was added at a varying concentration (0, 1, 5 and 10 µM) to the HSC-T6 cells incubated under the conditions described above, and then, the HSC-T6 cells were incubated under 5% CO2, and at a temperature of 37°C. After 24-hour incubation, the HSC-T6 cells were dissolved in a RIPA buffer solution (50 mM Tris-Cl (pH7.4), 1% NP-40, 150 mM NaCl, 1 mM EDTA) including a protease inhibitor (1 mM PMSF, […] aprotinin, […] leupeptin, and 1 mM Na3VO4) to prepare cytoplasm fractions, and 4-12% gradient SDS-PAGE (Invitrogen) was performed on the cytoplasmic fractions to separate proteins. The proteins separated on the SDS-PAGE gel were transferred to a nitrocellulose membrane (BioRad, Hercules, CA, USA) and the membrane was blocked with 5% skim milk. Then, the membrane was treated with an anti-α-SMA antibody (Sigma, U.S.A.), an anti-fibronectin antibody (Santa Cruz, U.S.A.), and an anti-GAPDH antibody (Ab Frontier, Korea). […]

TGF-β = TGF-β inhibitor screening, 3TP-pGL2 luciferase reporter in transformed HEK 293 cells; format: cell-based, human; details: compound added 2 h before 0.5 ng/ml TGF-β, FIGS. 3a, 3b
Text: In order to screen an agent for inhibiting TGF-β cells stably transformed by luciferase-expressing plasmids were used to measure an effect on TGF-β activity.
A plasmid with a Smad binding site and a […] activator inhibitor (PAI) promoter, obtained from professor Carlos Arteaga at the University of Vanderbilt in US, was inserted into pGL2-Null reporter plasmid (Promega, U.S.A.). […] The plasmid was used to transform human embryonic kidney (HEK) 293 cells according to the manufacturer s specification, using Lipofectamine 2000 (Invitrogen, Calsbad, CA, USA), thereby constructing a system for screening an effect on TGF-β activity by measuring luciferase activity. The activity of luciferase was measured using a Dual Luciferase Assay kit (Promega, Medison, WI, USA). […]
The HEK 293 cells transformed were inoculated into a 96-well plate at 20,000 cells/ well in triplicates and then incubated under the condition as described above for 24 hours. Then, TGF-β was added thereto at concentrations of 0.5, 1, and 5 ng/ml and after 15-hour incubation, luciferase activity was measured. […]
By using the screening system as described above, a TGF-β inhibition effect was tested on 8,000 compounds in a compound library. […] Then, the luciferase activity was measured as described above. […]

U87-MG = assay: Apoptosis of brain cancer cells alone or with doxorubicin, CCK-8 viability assay; format: cell-based; details: 48 h; for apoptosis effect together with doxorubicin: compound added 2 h before doxorubicin 0.05 µM; for apoptosis: compound alone at 5 µM or more, FIGS. 9b, 9d
Protocol: as §1

[3] = H1299, compound 5 µM + radiation (6 Gy) 2 h later

**Q.** For Cc1[nH]c2nc3c(c(=O)n(Cc4c(F)cccc4Cl)c(=O)n3C)n2c1C [compound II, 3-(2-chloro-6-fluorobenzyl)-1,6,7-trimethyl-1H-imidazo[2,1-f]purine-2,4(3H,8H)-dion], which inhibition at 1 µM (HSC-T6 cells [1]; Homo sapiens, HSC-T6, 1 µM, FIG. 5b, read-out: proliferation of hepatic stellate cells inhibited) is on record?
**A.** The inhibition at 1 µM was 12%.

**Q.** What about the inhibition at 10 µM (HSC-T6 cells [1]; Homo sapiens, HSC-T6, 10 µM, FIG. 5b, read-out: proliferation of hepatic stellate cells inhibited) of the same compound?
**A.** Its inhibition at 10 µM is 25%.

**Q.** And the inhibition at 20 µM (HSC-T6 cells [1]; Homo sapiens, HSC-T6, 20 µM, FIG. 5b, read-out: proliferation of hepatic stellate cells inhibited)?
**A.** Its inhibition at 20 µM is 30%.

**Q.** What about the “apoptosis effect together with doxorubicin” value (“apoptosis effect together” below) (H1299) of the same compound?
**A.** Its value is “additive or synergistic apoptosis effects”.

**Q.** And the apoptosis (H1299)?
**A.** Its apoptosis is “apoptosis occurred”.

**Q.** And the “effect on apoptosis together with radiation compared to compound or radiation alone” value (H1299 cells)?
**A.** Its value is “synergistic effect on apoptosis”.

**Q.** What about the “Apoptosis (%, average±SEM)” value (H1299 cells; [3]) of the same compound?
**A.** The value was 55.91±5.58%.

**Q.** What about the “Apoptosis (%, average±SEM)” value (H1299 cells; H1299, compound 5 µM alone) of the same compound?
**A.** The value was 14.79±0.78%.

**Q.** What about the “expression of α-SMA and fibronectin (fibrosis markers)” value (HSC-T6 cells [2]) of the same compound?
**A.** Its value is “significantly reduced fibrosis markers”.

**Q.** What about the “TGF-β activity (luciferase activity)” value (TGF-β) of the same compound?
**A.** The value was “inhibit TGF-β activity in a concentration-dependent way”.

**Q.** What about the “apoptosis effect together” value (U87-MG) of the same compound?
**A.** Its value is “additive or synergistic apoptosis effects”.

**Q.** What about the apoptosis (U87-MG) of the same compound?
**A.** The apoptosis was “did not occur”.

**Q.** Cc1cn2c(nc3c2c(=O)n(Cc2ccccc2Cl)c(=O)n3C)[nH]1 [compound I, 3-(2-chlorobenzyl)-1,7-dimethyl-1H-imidazo[2,1-f]purine-2,4(3H,8H)-dion] was tested. Which “proliferation of hepatic stellate cells” value (HSC-T6 cells [1]; 1, 10 and 20 µM, FIG. 5a) did it give?
**A.** The value was “almost completely blocked”.

**Q.** What about the “apoptosis effect together” value (H1299) of the same compound?
**A.** The value was “additive or synergistic apoptosis effects”.

**Q.** What about the apoptosis (H1299) of the same compound?
**A.** Its apoptosis is “apoptosis occurred”.

**Q.** What about the “effect on apoptosis together with radiation compared to compound or radiation alone” value (H1299 cells) of the same compound?
**A.** Its value is “synergistic effect on apoptosis”.

**Q.** What about the “Apoptosis (%, average±SEM)” value (H1299 cells; [3]) of the same compound?
**A.** The value was 73.42±1.84%.

**Q.** And the “Apoptosis (%, average±SEM)” value (H1299 cells; H1299, compound 5 µM alone)?
**A.** The value was 20.86±1.03%.

**Q.** What about the “expression of α-SMA and fibronectin (fibrosis markers)” value (HSC-T6 cells [2]) of the same compound?
**A.** The value was “concentration-dependently reduced”.

**Q.** What about the “TGF-β activity (luciferase activity)” value (TGF-β) of the same compound?
**A.** The value was “inhibit TGF-β activity in a concentration-dependent way”.

**Q.** And the “apoptosis effect together” value (U87-MG)?
**A.** Its value is “additive or synergistic apoptosis effects”.

**Q.** What about the apoptosis (U87-MG) of the same compound?
**A.** The apoptosis was “did not occur”.
